From patent US20100104664A1, “TREATMENT OF CHRONIC RENAL FAILURE AND OTHER CONDITIONS IN DOMESTIC ANIMALS: COMPOSITIONS AND METHODS” (priority 2005, published 2010)

Columns and labels:
adult beagle dogs = experiment: Dog study, urine phosphate excretion; type: in vivo; settings: 2250 mg elemental lanthanum twice daily, oral capsules, cross-over; urine approximately 24 hours after dosing
Protocol: Six adult beagle dogs were dosed orally with capsules of lanthanum oxycarbonate LaCO3OH (compound A) or La2O2CO3 (compound B) in a cross-over design using a dose of 2250 mg elemental lanthanum twice daily (6 hours apart). The doses were administered 30 minutes after provision of food to the animals. At least 14 days washout was allowed between the crossover arms. Plasma was obtained pre-dose and 1.5, 3, 6, 7.5, 9, 12, 24, 36, 48, 60, and 72 hours after dosing and analyzed for lanthanum using ICP-MS. Urine was collected by catheterization before and approximately 24 hours after dosing and creatinine and phosphorus concentrations measured.

dogs = experiment: Palatability study in dogs; type: in vivo, dog; settings: during hours post meal, 9 dogs
Description: Lanthanum oxycarbonate was mixed with wet and dry dog food and presented to 9 different dogs, almost all over 40 pounds.

[1] = physical and chemical properties of the phosphate binder; type: physicochemical
Description: The combination compositions of the present invention are benefited by the physical and chemical properties of the phosphate binders.

[2] = tested on: Sprague-Dawley rats with 5/6th nephrectomy; experiment: In vivo study in 5/6th nephrectomy rats, urine phosphorus excretion; set-up: species or system rat; settings: 314 mg elemental lanthanum/kg/day, oral lavage once daily for 14 days; compared to untreated rats
Protocol: Groups of six adult Sprague-Dawley rats underwent ⅚th nephrectomy in two stages over a period of 2 weeks and were then allowed to recover for a further two weeks prior to being randomized for treatment. The groups received vehicle (0.5% w/v carboxymethyl cellulose), or lanthanum oxycarbonate suspended in vehicle, once daily for 14 days by oral […] (10 ml/kg/day). The dose delivered 314 mg elemental lanthanum/kg/day. Dosing was carried out immediately before the dark (feeding) cycle on each day. Urine samples (24 hours) were collected prior to surgery, prior to the commencement of treatment, and twice weekly during the treatment period. Volume and phosphorus concentration were measured.
Feeding—During the acclimatization and surgery period, the animals were given Teklad phosphate sufficient diet (0.5% Ca, 0.3% P; Teklad No. TD85343), ad libitum. At the beginning of the treatment period, animals were pair fed based upon the average food consumption of the vehicle-treated animals the previous week.
⅚ Nephrectomy—After one week of acclimatization, all animals were subjected to ⅚ nephrectomy surgery. The surgery was performed in two stages. First, the two lower branches of the left renal artery were ligated. One week later, a right nephrectomy was performed. […]

| stability at high temperatures [1] | solubility in aqueous media ([1]; pH above 2.0) | Molecule | urine phosphate excretion, a marker of phosphorous binding (adult beagle dogs) | signs of nausea, vomiting, bloating or flatus (dogs) | phosphorus excretion (urine), a marker of dietary phosphorus binding [2] |
| --- | --- | --- | --- | --- | --- |
| – | – | O=C([O-])[O-].[La+3].[La+3].[O-2].[O-2] [compound B, La2O2CO3] | reduction of urine phosphate excretion | – | – |
| stable at high temperatures | sparingly soluble | lanthanum oxycarbonate | – | None of the dogs exhibited signs of nausea, vomiting, bloating or flatus | decrease in phosphorus excretion |
| – | – | O=C([O-])[O-].[La+3].[OH-] [lanthanum carbonate hydroxide] | – | – | decrease in phosphorus excretion |
| – | – | O=C([O-])[O-].[La+3].[OH-] [compound A, LaCO3OH] | reduction of urine phosphate excretion | – | – |
